Results: publication PMC12866986 (European journal of medicinal chemistry, 2026)

Target: FAK (Homo sapiens, UniProt Q05397)
Conditions: 100 nM; 1 h; relative to vehicle control; n = 8 measurements

FAK, sequence (Q05397 whole entry): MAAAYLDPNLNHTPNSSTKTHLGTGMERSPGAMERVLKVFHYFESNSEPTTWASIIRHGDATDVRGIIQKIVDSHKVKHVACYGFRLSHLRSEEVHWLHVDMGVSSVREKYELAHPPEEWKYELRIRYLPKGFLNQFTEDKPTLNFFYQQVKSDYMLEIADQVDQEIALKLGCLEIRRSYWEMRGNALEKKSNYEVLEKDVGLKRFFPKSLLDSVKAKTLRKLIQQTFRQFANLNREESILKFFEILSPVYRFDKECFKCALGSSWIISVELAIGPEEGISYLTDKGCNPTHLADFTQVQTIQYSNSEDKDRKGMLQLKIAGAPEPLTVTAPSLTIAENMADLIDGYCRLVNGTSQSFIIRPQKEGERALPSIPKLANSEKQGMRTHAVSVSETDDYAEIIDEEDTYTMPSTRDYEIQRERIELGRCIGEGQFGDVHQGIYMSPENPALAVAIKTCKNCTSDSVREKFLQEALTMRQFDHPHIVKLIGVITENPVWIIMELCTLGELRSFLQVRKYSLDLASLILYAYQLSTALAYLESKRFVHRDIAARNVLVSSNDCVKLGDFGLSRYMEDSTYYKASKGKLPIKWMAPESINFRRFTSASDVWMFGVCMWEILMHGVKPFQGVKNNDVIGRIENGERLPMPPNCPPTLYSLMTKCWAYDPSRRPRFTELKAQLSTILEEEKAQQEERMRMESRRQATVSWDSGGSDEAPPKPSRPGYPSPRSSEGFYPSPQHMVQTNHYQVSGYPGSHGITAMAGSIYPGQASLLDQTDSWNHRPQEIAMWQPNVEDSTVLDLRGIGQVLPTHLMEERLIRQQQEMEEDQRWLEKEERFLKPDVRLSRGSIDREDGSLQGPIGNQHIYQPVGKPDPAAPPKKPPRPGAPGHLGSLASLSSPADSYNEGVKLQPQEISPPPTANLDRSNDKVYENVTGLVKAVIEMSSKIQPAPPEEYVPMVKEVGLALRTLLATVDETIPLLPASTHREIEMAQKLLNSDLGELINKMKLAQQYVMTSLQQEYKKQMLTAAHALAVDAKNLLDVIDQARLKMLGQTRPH

Row | Structure (SMILES) | FAK-Tyr-397/FAK fold change, ± SEM
1 | COCCOCCOCCOc1ccc(N2CCOCC2)c(NC(=O)NCC(c2ccncc2)N(C)C)c1 (stereo not shown) [Compound 10l, 1-(2-(Dimethylamino)-2-(pyridin-4-yl)ethyl)-3-(5-(2-(2-(2-methoxyethoxy)ethoxy)ethoxy)-2-morpholinophenyl)urea] | 1.13±0.1 fold change
2 | Cc1ccc(N2CCOCC2)c(NC(=O)NCC(c2ccncc2)N(C)C)c1 (stereo not shown) [Compound 10c, 1-(2-(Dimethylamino)-2-(pyridin-4-yl)ethyl)-3-(5-methyl-2-morpholinophenyl)urea] | 0.89±0.05 fold change
3 | COCCOCCOc1ccc(N2CCOCC2)c(NC(=O)NCC(c2ccncc2)N(C)C)c1 (stereo not shown) [Compound 10k, 1-(2-(Dimethylamino)-2-(pyridin-4-yl)ethyl)-3-(5-(2-(2-methoxyethoxy)ethoxy)-2-morpholinophenyl)urea] | 1.32±0.03 fold change
4 | COC(=O)C(Cc1ccncc1)NC(=O)Nc1cc(C(F)(F)F)ccc1N1CCOCC1 (stereo not shown) [Compound 9a, Methyl 2-(3-(2-Morpholino-5-(trifluoromethyl)phenyl)ureido)-3-(pyridin-4-yl)propanoate] | 1.03±0.08 fold change
5 | CN(C)C(CNC(=O)Nc1cc(C(F)(F)F)ccc1N1CCOCC1)c1ccccn1.Cl (stereo not shown) [Compound 5cHCl, 1-(2-(Dimethylamino)-2-(pyridin-2-yl)ethyl)-3-(2-morpholino-5-(trifluoromethyl)phenyl)urea hydrochloric salt] | 0.98±0.07 fold change
6 | CN(C)C(CNC(=O)Nc1cc(C#N)ccc1N1CCOCC1)c1ccncc1 (stereo not shown) [Compound 10d, 1-(5-Cyano-2-morpholinophenyl)-3-(2-(dimethylamino)-2-(pyridin-4-yl)ethyl)urea] | 0.83±0.07 fold change
7 | CN(C)C(CNC(=O)Nc1cc(OCCOCCO)ccc1N1CCOCC1)c1ccncc1 (stereo not shown) [Compound 10m, 1-(2-(Dimethylamino)-2-(pyridin-4-yl)ethyl)-3-(5-(2-(2-hydroxyethoxy)ethoxy)-2-morpholinophenyl)urea] | 0.93±0.1 fold change
8 | CC(C)(CNC(=O)Nc1cc(C(F)(F)F)ccc1N1CCOCC1)c1ccncc1.Cl [Compound 6HCl, 1-(2-Methyl-2-(pyridin-4-yl)propyl)-3-(2-morpholino-5-(trifluoromethyl)phenyl)urea hydrochloric salt] | 1.11±0.12 fold change
9 | COCCNC(=O)C(Cc1ccncc1)NC(=O)Nc1cc(C(F)(F)F)ccc1N1CCOCC1 (stereo not shown) [Compound 9b, N-(2-Methoxyethyl)-2-(3-(2-morpholino-5-(trifluoromethyl)phenyl)ureido)-3-(pyridin-4-yl)propanamide] | 0.97±0.08 fold change
10 | CC(C)(CNC(=O)Nc1cc(C(F)(F)F)ccc1N1CCOCC1)c1ccncc1 [Compound 6, 1-(2-Methyl-2-(pyridin-4-yl)propyl)-3-(2-morpholino-5-(trifluoromethyl)phenyl)urea] | 1.09±0.12 fold change
11 | Cl.O=C(NCCc1cnccn1)Nc1cc(C(F)(F)F)ccc1N1CCOCC1 [Compound 8HCl, 1-(2-Morpholino-5-(trifluoromethyl)phenyl)-3-(2-(pyrazin-2-yl)ethyl)urea hydrochloric salt] | 1.05±0.07 fold change
12 | COc1ccc(N2CCOCC2)c(NC(=O)NCC(c2ccncc2)N(C)C)c1 (stereo not shown) [Compound 10h, 1-(2-(Dimethylamino)-2-(pyridin-4-yl)ethyl)-3-(5-methoxy-2-morpholinophenyl)urea] | 1.29±0.07 fold change
13 | CN(C)C(CNC(=O)Nc1cc(OC(F)(F)F)ccc1N1CCOCC1)c1ccncc1 (stereo not shown) [Compound 10g, 1-(2-(Dimethylamino)-2-(pyridin-4-yl)ethyl)-3-(2-morpholino-5-(trifluoromethoxy)phenyl)urea] | 1.12±0.03 fold change
